In PubChem BioAssay (NCI) one finds GI50 and TGI data, which are given here for ten molecules.

Among the test systems are LOX IMVI melanoma; TK-10 renal; M14 melanoma; UACC-62 melanoma; NCI-H226 lung; RPMI-8226 leukemia; OVCAR-8 ovarian.
Assay in all cases: inhibition of tumour cell growth, NCI panel, 48 h

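Five compound concentrations were applied to cells in 96-well plates for 48 hours; endpoints were derived by simple linear interpolation of the resulting dose-response curve. At the GI50, growth is halved. TGI marks complete inhibition of growth.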 Bounds are passed on as bounds.

In the case of `COc1cccc(C=Nc2cc(C)ccn2)c1O.COc1cccc(C=Nc2cc(C)ccn2)c1O.[Cu]`, the GI50 in the assay with LOX IMVI melanoma is 8.53 µM; with TK-10 renal, 19.8 µM; in the assay on M14 melanoma, 12.7 µM; in the assay with UACC-62 melanoma it was 15.8 µM; in the assay with NCI-H226 lung it was 9.25 µM; in the assay on RPMI-8226 leukemia, 17.6 µM. The GI50 in the assay with OVCAR-8 ovarian is 20.4 µM. The TGI was 30.9 µM in the assay with LOX IMVI melanoma; 42 µM in the assay with TK-10 renal; 39.1 µM in the assay on M14 melanoma; 31.9 µM in the assay with UACC-62 melanoma; 27.2 µM in the assay on NCI-H226 lung; more than 100 µM with RPMI-8226 leukemia. The molecule also came in with a TGI in the assay with OVCAR-8 ovarian of 64.4 µM.
Take `O=C(O)C/C=C/CC(=O)O`: the TGI with LOX IMVI melanoma, in the assay on TK-10 renal, in the assay on M14 melanoma, in the assay on UACC-62 melanoma, in the assay on NCI-H226 lung and in the assay with RPMI-8226 leukemia was more than 100 µM in each case. For the same molecule, the TGI with OVCAR-8 ovarian is more than 100 µM.
Regarding `O=C1C(=O)c2c(nc3ccc(Cl)cn23)-c2ccccc21`, the GI50 is 0.216 µM in the assay with LOX IMVI melanoma; 1.8 µM with TK-10 renal; 1.3 µM in the assay on M14 melanoma; 0.285 µM with UACC-62 melanoma; 1.65 µM in the assay with NCI-H226 lung; 0.35 µM in the assay with RPMI-8226 leukemia. Further, the GI50 in the assay with OVCAR-8 ovarian was 0.471 µM. In addition, the TGI with LOX IMVI melanoma was found to be 0.498 µM; in the assay on TK-10 renal, 3.59 µM; in the assay on M14 melanoma, 3.05 µM; with UACC-62 melanoma, 0.904 µM; with NCI-H226 lung it was 3.49 µM; in the assay with RPMI-8226 leukemia it was 2.88 µM. For the same molecule, the TGI in the assay with OVCAR-8 ovarian was 1.91 µM.
With `Cc1ccc(-c2cc(-c3ccc(C)cc3)nc(NCCNc3ccnc4cc(Cl)ccc34)n2)cc1`, the GI50 with LOX IMVI melanoma was 1.83 µM; in the assay on TK-10 renal, 1.78 µM; with M14 melanoma it was 1.78 µM; with UACC-62 melanoma it was 1.77 µM; with NCI-H226 lung, 1.8 µM; in the assay on RPMI-8226 leukemia it was 1.85 µM. For the same molecule, the GI50 in the assay with OVCAR-8 ovarian was 1.88 µM. For the same molecule, the TGI in the assay with LOX IMVI melanoma worked out at 3.71 µM; in the assay with TK-10 renal, 3.47 µM; in the assay on M14 melanoma, 3.65 µM; in the assay on UACC-62 melanoma it was 3.38 µM; with NCI-H226 lung it was 4.18 µM; in the assay on RPMI-8226 leukemia it was 4.45 µM. Also, the TGI with OVCAR-8 ovarian was found to be 3.88 µM.
With `CCCn1c(C)nc2c1C(=O)c1ccccc1C2=O`, the GI50 was 22.9 µM with LOX IMVI melanoma; 65.2 µM in the assay with TK-10 renal; 40 µM with M14 melanoma; 22.1 µM with UACC-62 melanoma; 57.3 µM in the assay on NCI-H226 lung; 17.2 µM with RPMI-8226 leukemia. Besides, the GI50 in the assay with OVCAR-8 ovarian was 31.8 µM. The TGI in the assay on LOX IMVI melanoma is more than 100 µM; in the assay with TK-10 renal, more than 100 µM; in the assay on M14 melanoma it was more than 100 µM; in the assay with UACC-62 melanoma, 67.7 µM; in the assay on NCI-H226 lung, more than 100 µM; with RPMI-8226 leukemia, more than 100 µM. The same molecule yielded a TGI with OVCAR-8 ovarian of more than 100 µM.
Consider `C=CC(=O)Nc1cccc(C)c1Nc1cc(-c2cccnc2Cc2c(C)c(OC)cc(OC)c2C)ncn1`, for which the GI50 with LOX IMVI melanoma was 6.12 µM; with TK-10 renal, 10.8 µM; in the assay with M14 melanoma, 22.5 µM; in the assay with UACC-62 melanoma, 10.3 µM; with NCI-H226 lung, 10.5 µM; in the assay on RPMI-8226 leukemia it was 3.37 µM. The GI50 in the assay with OVCAR-8 ovarian is 12 µM. Besides, the TGI is 19.8 µM in the assay with LOX IMVI melanoma; 99.4 µM in the assay on TK-10 renal; 97.5 µM with M14 melanoma; 25.9 µM with UACC-62 melanoma; 63 µM in the assay with NCI-H226 lung; 24.9 µM with RPMI-8226 leukemia. In addition, the TGI in the assay on OVCAR-8 ovarian came to 50 µM.
For `O=C(C1CCCCC1)[C@@H]1[C@]2(C(=O)NC3CCCCC32)[C@@H]2CCCN2[C@@]12C(=O)NC1CCC(Cl)CC12` (stereo partly drawn), the GI50 was 103 µM with LOX IMVI melanoma; 266 µM in the assay with TK-10 renal; 116 µM in the assay with M14 melanoma; 91.9 µM with UACC-62 melanoma; 179 µM in the assay with NCI-H226 lung; 32.6 µM in the assay with RPMI-8226 leukemia. Besides, the GI50 in the assay on OVCAR-8 ovarian was 162 µM. In addition, the TGI with LOX IMVI melanoma stood at 253 µM; in the assay with TK-10 renal, 448 µM; in the assay on M14 melanoma, 253 µM; in the assay on UACC-62 melanoma it was 215 µM; with NCI-H226 lung, 411 µM; with RPMI-8226 leukemia, 103 µM. Also, in the assay with OVCAR-8 ovarian, the TGI stood at 394 µM.
As to `Cc1cc(N/N=C/c2nc(-c3ccc(Br)cc3)oc2C)c2cc(Cl)ccc2n1`, the GI50 in the assay on LOX IMVI melanoma, in the assay with TK-10 renal, in the assay on M14 melanoma, in the assay on UACC-62 melanoma, in the assay on NCI-H226 lung and in the assay on RPMI-8226 leukemia was more than 100 µM in each case. Besides, the GI50 in the assay with OVCAR-8 ovarian is more than 100 µM. The TGI in the assay with LOX IMVI melanoma, in the assay on TK-10 renal, in the assay on M14 melanoma, in the assay on UACC-62 melanoma, with NCI-H226 lung and in the assay on RPMI-8226 leukemia was more than 100 µM each time. The TGI in the assay with OVCAR-8 ovarian was more than 100 µM.
As for `Cc1ccc(NC(=O)/C=C/c2ccccc2)c(C(N)=O)c1`, the GI50 in the assay on LOX IMVI melanoma was 7.87 µM; with TK-10 renal it was 17.1 µM; in the assay on M14 melanoma it was 2.12 µM; with UACC-62 melanoma it was 3.44 µM; in the assay with NCI-H226 lung it was 6.46 µM; in the assay on RPMI-8226 leukemia, 2.89 µM. Moreover, the GI50 in the assay with OVCAR-8 ovarian is 7.38 µM. The TGI with LOX IMVI melanoma is more than 100 µM; in the assay with TK-10 renal, more than 100 µM; with M14 melanoma, more than 100 µM; with UACC-62 melanoma it was more than 80.8 µM; in the assay on NCI-H226 lung, more than 100 µM; in the assay with RPMI-8226 leukemia, more than 100 µM. In addition, the TGI in the assay with OVCAR-8 ovarian is more than 100 µM.
On to `COc1cc2c(cc1OCCCCOc1cc3c(cc1OC)C(=O)N1CCC[C@H]1CN3)N=C[C@@H]1CCCN1C2=O`, for which the GI50 is 1.07 µM in the assay with LOX IMVI melanoma; 1.64 µM in the assay with TK-10 renal; 2.37 µM in the assay with M14 melanoma; 1.3 µM with UACC-62 melanoma; 1.94 µM with NCI-H226 lung; 0.575 µM in the assay with RPMI-8226 leukemia. Further, in the assay on OVCAR-8 ovarian, the GI50 is 3.37 µM. The TGI in the assay with LOX IMVI melanoma is more than 32.5 µM; with TK-10 renal it was 8.38 µM; in the assay on M14 melanoma, 7.19 µM; in the assay with UACC-62 melanoma, 3.03 µM; in the assay on NCI-H226 lung, 4.49 µM; in the assay with RPMI-8226 leukemia, 4.84 µM. The molecule also came in with a TGI with OVCAR-8 ovarian of more than 33.1 µM.
